Columns and labels:
[1] = in vivo
Mouse = experiment: Genotoxicity: mouse micronucleus; details: in vivo
in vivo [2] = details: chicken
[3] = in vivo; remark: listed apart in the source
Hen = details: in vivo
in vivo [4] = details: topical or ocular
in vivo [5] = details: po
[6] = sample as named; W samples fresh

CC(C)COP(=O)(OCC(C)C)OCC(C)C [TIBP, triisobutyl phosphate]
Skin Irritation [1]: Moderately irritating | Mouse micronucleus (Mouse): negative | LD50 (in vivo [2]): > 5000 mg/kg | Eye Irritation [3]: Practically non-irritating | Hen Neurotox (Hen): Not neurotoxic | LD50 (in vivo [4]): > 5000 mg/kg | LD50 (in vivo [5]): > 5000 mg/kg | Subchronic Bladder Hyperplasia, level in rats (Bladder): > 5000 ppm | NOEL, subchronic bladder hyperplasia (Bladder; rats): 5000 ppm | Subchronic Bladder Hyperplasia, observation (Bladder; rats): None observed | Ames (Ames): negative

CCCCOP(=O)(OCCCC)Oc1ccccc1 [DBPP, dibutyl phenyl phosphate]
Independent Lab Cond. [6]: 0.008 μMHO/cm

— patent US5464551A, “Stabilized phosphate ester-based functional fluid compositions” (Monsanto Company, priority 1993, dated 1995)
